Here are results for one compound from patent US9540314B2, “N-cycloalkyl-N-[(cycloalkenylphenyl)methylene]-(thio) carboxamide derivatives” (BAYER INTELLECTUAL PROPERTY GMBH, priority 2012, dated 2017).

Experiment [1] has as its system Alternaria brassicae. The experiment can be described thus: In vivo preventive test on Alternaria brassicae (leaf spot on radish). The settings on record: Table C1, 500 ppm, radish plants, grading 6 days after contamination. As to the method:
The active ingredients tested are prepared by homogenization in a mixture of acetone/tween/DMSO, and then diluted with water to obtain the desired active material concentration.
Radish plants (“Pernod Clair” variety), sown in starter cups on a 50/50 peat soil pozzolana substrate and grown at 17° C., are treated at the cotyledon stage by spraying with the active ingredient prepared as described above. Plants, used as controls, are treated with the mixture of acetone/tween/DMSO/water not containing the active material.
After 24 hours, the plants are contaminated by spraying the cotyledons with an aqueous suspension of Alternaria brassicae spores (50 000 spores per mL). The spores are collected from a 15-day-old culture.
The contaminated radish plants are incubated at 20° C. and at 100% relative humidity.
Grading (% of efficacy) is carried out 6 days after the contamination, in comparison with the control plants.
Under these conditions, high (at least 80%) to excellent (at least 90%) protection is observed at a dose of 500 ppm of active ingredient with the following compounds from table C1: […]

Experiment [2] relates to Botrytis cinerea. The experiment can be described thus: In vivo preventive test on Botrytis cinerea (beans). The procedure:
To produce a suitable preparation of active compound, 1 part by weight of active compound is mixed with the stated amounts of solvent and emulsifier, and the concentrate is diluted with water to the desired concentration.
To test for preventive activity, young plants are sprayed with the preparation of active compound. After the spray coating has dried on, 2 small pieces of agar covered with growth of Botrytis cinerea are placed on each leaf. The inoculated plants are placed in a darkened chamber at 20° C. and a relative atmospheric humidity of 100%.
2 days after the inoculation, the size of the lesions on the leaves is evaluated. 0% means an efficacy which corresponds to that of the untreated control, while an efficacy of 100% means that no disease is observed.
Under these conditions, excellent (at least 95%) protection is observed at a dose of 100 ppm of active ingredient with the following compound from table E1: […]

Regarding `Cc1nn(C)c(F)c1C(=O)N(C1CC1)C(C)c1ccccc1C1=CCCC1` (racemic) [I.1], the Efficacy is reported as 98% in experiment [1]; 98% in experiment [2] (Table E1, 100 ppm, lesion size 2 days after inoculation); 98% in experiment [2] (Table E2, dose 100 ppm, 2 days after inoculation); “at least 95%” in experiment [2] (Table E2, dose 100 ppm, 2 days after inoculation, listed as 1.1); 98% in experiment [2] (Table E2, dose 250 ppm, 2 days after inoculation); “at least 95%” in experiment [2] (Table E2, dose 250 ppm, 2 days after inoculation, listed as 1.1).
